# Test system: 885512-296-R-J2-PDC complex spheroid viability
# Assay: Anticancer human tumor 885512-296-R-J2-PDC patient-derived breast carcinoma cell line growth inhibition
# Settings: for IC50: curve of first compound; for viability, T/C: stronger effect = lower value
# Summary of the method: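 Multicellular complex spheroids of tumor cells with human endothelial cells (HUVEC) and mesenchymal stem cells; the LSD1 inhibitor iadademstat was combined with standard-of-care or investigational agents. Top concentration at or near clinical Cmax, half-log dilutions; final DMSO ≤0.25%.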
# [1] = second compound 0.1 µM, first compound 0.0316 µM
# [2] = second compound 0.1 µM, first compound 0.1 µM
# [3] = second compound 0.1 µM, first compound 0.316 µM
# [4] = second compound 0.1 µM, first compound 1 µM
# [5] = second compound 0.1 µM, first compound 3.16 µM
# [6] = second compound 0.1 µM, first compound 10 µM
# [7] = second compound 0.316 µM, first compound 0.0316 µM
# [8] = second compound 0.316 µM, first compound 0.1 µM
# [9] = second compound 0.316 µM, first compound 0.316 µM
# [10] = second compound 0.316 µM, first compound 1 µM
# [11] = second compound 0.316 µM, first compound 3.16 µM
# [12] = second compound 0.316 µM, first compound 10 µM
# [13] = second compound 1 µM, first compound 0.0316 µM
# [14] = second compound 1 µM, first compound 0.1 µM
# [15] = second compound 1 µM, first compound 0.316 µM
# [16] = second compound 1 µM, first compound 1 µM
# [17] = second compound 1 µM, first compound 3.16 µM
# [18] = second compound 1 µM, first compound 10 µM
# [19] = second compound 3.16 µM, first compound 0.0316 µM
# [20] = second compound 3.16 µM, first compound 0.1 µM
# [21] = second compound 3.16 µM, first compound 0.316 µM
# [22] = second compound 3.16 µM, first compound 1 µM
# [23] = second compound 3.16 µM, first compound 3.16 µM
# [24] = second compound 3.16 µM, first compound 10 µM
# [25] = second compound 10 µM, first compound 0.0316 µM
# [26] = second compound 10 µM, first compound 0.1 µM
# [27] = second compound 10 µM, first compound 0.316 µM
# [28] = second compound 10 µM, first compound 1 µM
# [29] = second compound 10 µM, first compound 3.16 µM
# [30] = second compound 10 µM, first compound 10 µM
# [31] = second compound 0.1 µM, first compound 0.00949 µM
# [32] = second compound 0.1 µM, first compound 0.03 µM
# [33] = second compound 0.1 µM, first compound 0.0949 µM
# [34] = second compound 0.1 µM, first compound 0.3 µM
# [35] = second compound 0.316 µM, first compound 0.00949 µM
# [36] = second compound 0.316 µM, first compound 0.03 µM
# [37] = second compound 0.316 µM, first compound 0.0949 µM
# [38] = second compound 0.316 µM, first compound 0.3 µM
# [39] = second compound 1 µM, first compound 0.00949 µM
# [40] = second compound 1 µM, first compound 0.03 µM
# [41] = second compound 1 µM, first compound 0.0949 µM
# [42] = second compound 1 µM, first compound 0.3 µM
# [43] = second compound 3.16 µM, first compound 0.00949 µM
# [44] = second compound 3.16 µM, first compound 0.03 µM
# [45] = second compound 3.16 µM, first compound 0.0949 µM
# [46] = second compound 3.16 µM, first compound 0.3 µM
# [47] = second compound 10 µM, first compound 0.00949 µM
# [48] = second compound 10 µM, first compound 0.03 µM
# [49] = second compound 10 µM, first compound 0.0949 µM
# [50] = second compound 10 µM, first compound 0.3 µM
# 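Further: spheroids exposed to agents for 7 days before viability read.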
compound,measurement,setting,value
CC1(C)CCC(CN2CCN(c3ccc(C(=O)NS(=O)(=O)c4ccc(NCC5CCOCC5)c([N+](=O)[O-])c4)c(Oc4cnc5[nH]ccc5c4)c3)CC2)=C(c2ccc(Cl)cc2)C1 + NC1CC1c1ccc(-c2cccc(O)c2)cc1,IC50,second compound 0.1 µM,1780 nM
same,IC50,second compound 0.316 µM,1820 nM
same,IC50,second compound 1 µM,1850 nM
same,IC50,second compound 3.16 µM,1530 nM
same,IC50,second compound 10 µM,994 nM
same,"viability, T/C",[1],118%
same,"viability, T/C",[2],111%
same,"viability, T/C",[3],105%
same,"viability, T/C",[4],76.4%
same,"viability, T/C",[5],23.9%
same,"viability, T/C",[6],0.12%
same,"viability, T/C",[7],122%
same,"viability, T/C",[8],112%
same,"viability, T/C",[9],105%
same,"viability, T/C",[10],82.3%
same,"viability, T/C",[11],20.8%
same,"viability, T/C",[12],0.11%
same,"viability, T/C",[13],115%
same,"viability, T/C",[14],116%
same,"viability, T/C",[15],105%
same,"viability, T/C",[16],79.9%
same,"viability, T/C",[17],24.4%
same,"viability, T/C",[18],0.22%
same,"viability, T/C",[19],103%
same,"viability, T/C",[20],103%
same,"viability, T/C",[21],101%
same,"viability, T/C",[22],68.4%
same,"viability, T/C",[23],17.6%
same,"viability, T/C",[24],0.11%
same,"viability, T/C",[25],83.1%
same,"viability, T/C",[26],78.8%
same,"viability, T/C",[27],70.5%
same,"viability, T/C",[28],52.1%
same,"viability, T/C",[29],12.4%
same,"viability, T/C",[30],0.15%
CC1COCCN1c1cc(C2(S(C)(=N)=O)CC2)nc(-c2ccnc3[nH]ccc23)n1 (stereo not given) + NC1CC1c1ccc(-c2cccc(O)c2)cc1,IC50,second compound 0.1 µM,501 nM
same,IC50,second compound 0.316 µM,466 nM
same,IC50,second compound 1 µM,338 nM
same,IC50,second compound 3.16 µM,412 nM
same,IC50,second compound 10 µM,216 nM
same,"viability, T/C",[1],110%
same,"viability, T/C",[2],116%
same,"viability, T/C",[3],76.1%
same,"viability, T/C",[4],11.1%
same,"viability, T/C",[5],3.64%
same,"viability, T/C",[6],2.7%
same,"viability, T/C",[7],139%
same,"viability, T/C",[8],112%
same,"viability, T/C",[9],72.3%
same,"viability, T/C",[10],10.7%
same,"viability, T/C",[11],3.33%
same,"viability, T/C",[12],2.63%
same,"viability, T/C",[13],118%
same,"viability, T/C",[14],113%
same,"viability, T/C",[15],52.3%
same,"viability, T/C",[16],8.24%
same,"viability, T/C",[17],3.25%
same,"viability, T/C",[18],2.72%
same,"viability, T/C",[19],114%
same,"viability, T/C",[20],101%
same,"viability, T/C",[21],63.1%
same,"viability, T/C",[22],9.16%
same,"viability, T/C",[23],3.38%
same,"viability, T/C",[24],2.43%
same,"viability, T/C",[25],79.9%
same,"viability, T/C",[26],76.5%
same,"viability, T/C",[27],37%
same,"viability, T/C",[28],8.1%
same,"viability, T/C",[29],3.13%
same,"viability, T/C",[30],2.67%
CCN(c1cc(-c2ccc(CN3CCOCC3)cc2)cc(C(=O)NCc2c(C)cc(C)[nH]c2=O)c1C)C1CCOCC1 + NC1CC1c1ccc(-c2cccc(O)c2)cc1,IC50,second compound 0.1 µM,158 nM
same,IC50,second compound 0.316 µM,165 nM
same,IC50,second compound 1 µM,151 nM
same,IC50,second compound 3.16 µM,153 nM
same,IC50,second compound 10 µM,93.1 nM
same,"viability, T/C",[31],106%
same,"viability, T/C",[32],108%
same,"viability, T/C",[33],67.2%
same,"viability, T/C",[34],26.9%
same,"viability, T/C","second compound 0.1 µM, first compound 0.949 µM",19.2%
same,"viability, T/C","second compound 0.1 µM, first compound 3 µM",7.41%
same,"viability, T/C",[35],120%
same,"viability, T/C",[36],103%
same,"viability, T/C",[37],65.8%
same,"viability, T/C",[38],31.9%
same,"viability, T/C","second compound 0.316 µM, first compound 0.949 µM",16.2%
same,"viability, T/C","second compound 0.316 µM, first compound 3 µM",7.17%
same,"viability, T/C",[39],120%
same,"viability, T/C",[40],105%
same,"viability, T/C",[41],60.6%
same,"viability, T/C",[42],31.1%
same,"viability, T/C","second compound 1 µM, first compound 0.949 µM",16.7%
same,"viability, T/C","second compound 1 µM, first compound 3 µM",6.44%
same,"viability, T/C",[43],100%
same,"viability, T/C",[44],86.6%
same,"viability, T/C",[45],63.2%
same,"viability, T/C",[46],31.6%
same,"viability, T/C","second compound 3.16 µM, first compound 0.949 µM",16.8%
same,"viability, T/C","second compound 3.16 µM, first compound 3 µM",7.23%
same,"viability, T/C",[47],84%
same,"viability, T/C",[48],78.7%
same,"viability, T/C",[49],48.2%
same,"viability, T/C",[50],21.1%
same,"viability, T/C","second compound 10 µM, first compound 0.949 µM",12.8%
same,"viability, T/C","second compound 10 µM, first compound 3 µM",6.35%
Cn1ncnc1C1c2n[nH]c(=O)c3cc(F)cc(c23)NC1c1ccc(F)cc1 (stereo not given) + NC1CC1c1ccc(-c2cccc(O)c2)cc1,IC50,second compound 0.1 µM,55.1 nM
same,IC50,second compound 0.316 µM,51 nM
same,IC50,second compound 1 µM,41 nM
same,IC50,second compound 3.16 µM,28.1 nM
same,IC50,second compound 10 µM,15.5 nM
same,"viability, T/C","second compound 0.1 µM, first compound 0.000316 µM",138%
same,"viability, T/C","second compound 0.1 µM, first compound 0.001 µM",114%
same,"viability, T/C","second compound 0.1 µM, first compound 0.00316 µM",98.7%
same,"viability, T/C","second compound 0.1 µM, first compound 0.01 µM",86.2%
same,"viability, T/C",[1],63.6%
same,"viability, T/C",[2],35.8%
same,"viability, T/C","second compound 0.316 µM, first compound 0.000316 µM",112%
same,"viability, T/C","second compound 0.316 µM, first compound 0.001 µM",121%
same,"viability, T/C","second compound 0.316 µM, first compound 0.00316 µM",97%
same,"viability, T/C","second compound 0.316 µM, first compound 0.01 µM",89.2%
same,"viability, T/C",[7],64.3%
same,"viability, T/C",[8],30.3%
same,"viability, T/C","second compound 1 µM, first compound 0.000316 µM",118%
same,"viability, T/C","second compound 1 µM, first compound 0.001 µM",114%
same,"viability, T/C","second compound 1 µM, first compound 0.00316 µM",101%
same,"viability, T/C","second compound 1 µM, first compound 0.01 µM",86.3%
same,"viability, T/C",[13],53.7%
same,"viability, T/C",[14],32.3%
same,"viability, T/C","second compound 3.16 µM, first compound 0.000316 µM",105%
same,"viability, T/C","second compound 3.16 µM, first compound 0.001 µM",110%
same,"viability, T/C","second compound 3.16 µM, first compound 0.00316 µM",94.2%
same,"viability, T/C","second compound 3.16 µM, first compound 0.01 µM",77.4%
same,"viability, T/C",[19],46.7%
same,"viability, T/C",[20],27.2%
same,"viability, T/C","second compound 10 µM, first compound 0.000316 µM",72.4%
same,"viability, T/C","second compound 10 µM, first compound 0.001 µM",80.2%
same,"viability, T/C","second compound 10 µM, first compound 0.00316 µM",70.5%
same,"viability, T/C","second compound 10 µM, first compound 0.01 µM",55.5%
same,"viability, T/C",[25],39.1%
same,"viability, T/C",[26],20.5%
Nc1ncn(C2CC(O)C(CO)S2)c(=O)n1 (stereo not given) + NC1CC1c1ccc(-c2cccc(O)c2)cc1,IC50,second compound 0.1 µM,4.6 nM
same,IC50,second compound 0.316 µM,4.26 nM
same,IC50,second compound 1 µM,4.39 nM
same,IC50,second compound 3.16 µM,2.81 nM
same,IC50,second compound 10 µM,0.989 nM
same,"viability, T/C","second compound 0.1 µM, first compound 0.000949 µM",91.2%
same,"viability, T/C","second compound 0.1 µM, first compound 0.003 µM",62%
same,"viability, T/C",[31],29.4%
same,"viability, T/C",[32],15.9%
same,"viability, T/C",[33],8.39%
same,"viability, T/C",[34],4.32%
same,"viability, T/C","second compound 0.316 µM, first compound 0.000949 µM",84.1%
same,"viability, T/C","second compound 0.316 µM, first compound 0.003 µM",60.6%
same,"viability, T/C",[35],26.1%
same,"viability, T/C",[36],14.8%
same,"viability, T/C",[37],8.48%
same,"viability, T/C",[38],4.51%
same,"viability, T/C","second compound 1 µM, first compound 0.000949 µM",75%
same,"viability, T/C","second compound 1 µM, first compound 0.003 µM",60.4%
same,"viability, T/C",[39],29.5%
same,"viability, T/C",[40],13.8%
same,"viability, T/C",[41],7.96%
same,"viability, T/C",[42],4.21%
same,"viability, T/C","second compound 3.16 µM, first compound 0.000949 µM",61.6%
same,"viability, T/C","second compound 3.16 µM, first compound 0.003 µM",50.2%
same,"viability, T/C",[43],25.9%
same,"viability, T/C",[44],12.9%
same,"viability, T/C",[45],6.26%
same,"viability, T/C",[46],4.09%
same,"viability, T/C","second compound 10 µM, first compound 0.000949 µM",50.1%
same,"viability, T/C","second compound 10 µM, first compound 0.003 µM",39.8%
same,"viability, T/C",[47],17.2%
same,"viability, T/C",[48],9.45%
same,"viability, T/C",[49],5.85%
same,"viability, T/C",[50],3.58%
